Assays:
Assay type in all cases: in vivo
[1] = system: barnyardgrass (Echinochloa crus-galli); assay: Test A pre-/postemergence plant response
Text: (§1) Seeds of barnyardgrass (Echinochloa crus-galli), large crabgrass (Digitaria sanguinalis), giant foxtail (Setaria faberii), morningglory (Ipomoea spp.), pigweed (Amaranthus retroflexus), velvetleaf (Abutilon theophrasti), wheat (Triticum aestivum) and corn (Zea mays) were planted into a blend of loam soil and sand and treated preemergence with a directed soil spray using test chemicals formulated in a non-phytotoxic solvent mixture which included a surfactant. At the same time these species were also treated with postemergence applications of test compounds formulated in the same manner.
(§2) Plants ranged in height from two to ten cm and were in the one- to two-leaf stage for the postemergence treatment. Treated plants and untreated controls were maintained in a greenhouse for approximately ten days, after which time all treated plants were compared to untreated controls and visually evaluated for injury. Plant response ratings, summarized in Table A, are based on a 0 to 100 scale where 0 is no effect and 100 is complete control. A dash (-) response means no test result.

corn (Zea mays) = assay: Test A pre-/postemergence plant response
Text: as §1, §2

[2] = system: giant foxtail (Setaria faberii); assay: Test A pre-/postemergence plant response
Text: as §1, §2

[3] = system: large crabgrass (Digitaria sanguinalis); assay: Test A pre-/postemergence plant response
Text: as §1, §2

[4] = system: morningglory (Ipomoea spp.); assay: Test A pre-/postemergence plant response
Text: as §1, §2

[5] = system: pigweed (Amaranthus retroflexus); assay: Test A pre-/postemergence plant response
Text: as §1, §2

[6] = system: velvetleaf (Abutilon theophrasti); assay: Test A pre-/postemergence plant response
Text: as §1, §2

[7] = system: wheat (Triticum aestivum); assay: Test A pre-/postemergence plant response
Text: as §1, §2

[8] = system: barnyardgrass (Echinochloa crus-galli); assay: Test B flooded paddy test; settings: for Plant response rating, Flood, Barnyardgrass: 250 g ai/ha, flooded paddy test, visual rating on 0 to 100 scale (0 no effect, 100 complete control) after 13 to 15 days; for Plant response rating, Barnyardgrass: Flood (flooded paddy test), 13 to 15 days
In short: (§3)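 Flooded-pot test: water raised to 3 cm above soil when treating, compound put in the water, level unchanged thereafter. Plants were at 2 leaves. Readout after 13 to 15 days, visual, relative to controls; 0 signifies no effect and 100 complete control.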

[9] = system: ducksalad (Heteranthera limosa); assay: Test B flooded paddy test; settings: for Plant response rating, Flood, Ducksalad: 250 g ai/ha, flooded paddy test, visual rating on 0 to 100 scale (0 no effect, 100 complete control) after 13 to 15 days; for Plant response rating, Ducksalad: Flood (flooded paddy test), 13 to 15 days
In short: as §3

rice (Oryza sativa) = assay: Test B flooded paddy test; settings: for Plant response rating, Flood, Rice: 250 g ai/ha, flooded paddy test, visual rating on 0 to 100 scale (0 no effect, 100 complete control) after 13 to 15 days; for Plant response rating, Rice: Flood (flooded paddy test), 13 to 15 days
In short: as §3

[10] = system: umbrella sedge (Cyperus difformis); assay: Test B flooded paddy test; settings: for Plant response rating, Flood, Sedge, Umbrella: 250 g ai/ha, flooded paddy test, visual rating on 0 to 100 scale (0 no effect, 100 complete control) after 13 to 15 days; for Plant response rating, Sedge, Umbrella: Flood (flooded paddy test), 13 to 15 days
In short: as §3

[11] = Postemergence, 125 g ai/ha, 0 to 100 scale where 0 is no effect and 100 is complete control
[12] = Postemergence, 500 g ai/ha, 0 to 100 scale, 0 = no effect, 100 = complete control, approx. ten days
[13] = Preemergence, 125 g ai/ha, 0 to 100 scale, 0 = no effect, 100 = complete control
[14] = Preemergence, 500 g ai/ha, visual injury, 0 to 100 scale (0 no effect, 100 complete control), approx. ten days
[15] = 62 g ai/ha, scale of 0 to 100 where 0 is no effect and 100 is complete control
[16] = 125 g ai/ha, scale 0 to 100, 0 is no effect, 100 is complete control
[17] = Flood, 31 g ai/ha, scale 0 to 100 (0 no effect, 100 complete control)

CCCCn1c(-c2cccc(Br)c2)ncc(C(=O)C2=C(O)CCCC2=O)c1=O [Compound 138]
Plant response rating, Barnyardgrass [1, 11]: 90 | Plant response rating, Barnyardgrass [1, 12]: 90 | Plant response rating, Barnyardgrass [1, 13]: 20 | Plant response rating, Barnyardgrass [1, 14]: 90 | Plant response rating, Corn (corn (Zea mays); [11]): 20 | Plant response rating, Corn (corn (Zea mays); [12]): 20 | Plant response rating, Corn (corn (Zea mays); [13]): 0 | Plant response rating, Corn (corn (Zea mays); [14]): 20 | Plant response rating, Foxtail, Giant [2, 11]: 60 | Plant response rating, Foxtail, Giant [2, 12]: 90 | Plant response rating, Foxtail, Giant [2, 13]: 30 | Plant response rating, Foxtail, Giant [2, 14]: 70 | Plant response rating, Crabgrass, Large [3, 11]: 70 | Plant response rating, Crabgrass, Large [3, 12]: 90 | Plant response rating, Crabgrass, Large [3, 13]: 40 | Plant response rating, Crabgrass, Large [3, 14]: 70 | Plant response rating, Morningglory [4, 11]: 50 | Plant response rating, Morningglory [4, 12]: 100 | Plant response rating, Morningglory [4, 13]: 0 | Plant response rating, Morningglory [4, 14]: 0 | Plant response rating, Pigweed [5, 11]: 100 | Plant response rating, Pigweed [5, 12]: 100 | Plant response rating, Pigweed [5, 13]: 50 | Plant response rating, Pigweed [5, 14]: 90 | Plant response rating, Velvetleaf [6, 11]: 100 | Plant response rating, Velvetleaf [6, 12]: 100 | Plant response rating, Velvetleaf [6, 13]: 20 | Plant response rating, Velvetleaf [6, 14]: 80 | Plant response rating, Wheat [7, 11]: 0 | Plant response rating, Wheat [7, 12]: 20 | Plant response rating, Wheat [7, 13]: 0 | Plant response rating, Wheat [7, 14]: 20 | Plant response rating, Flood, Barnyardgrass [8]: 25 | Plant response rating, Barnyardgrass [8, 15]: 0 | Plant response rating, Flood, Ducksalad [9]: 80 | Plant response rating, Ducksalad [9, 15]: 70 | Plant response rating, Flood, Rice (rice (Oryza sativa)): 15 | Plant response rating, Rice (rice (Oryza sativa); [15]): 0 | Plant response rating, Flood, Sedge, Umbrella [10]: 80 | Plant response rating, Sedge, Umbrella [10, 15]: 70

O=C1CCCC(O)=C1C(=O)c1cnc(-c2cccc(Cl)c2)n(CC2CCCO2)c1=O (stereo not shown) [Compound 142]
Plant response rating, Barnyardgrass [1, 11]: 70 | Plant response rating, Barnyardgrass [1, 12]: 90 | Plant response rating, Barnyardgrass [1, 13]: 10 | Plant response rating, Barnyardgrass [1, 14]: 80 | Plant response rating, Corn (corn (Zea mays); [11]): 0 | Plant response rating, Corn (corn (Zea mays); [12]): 20 | Plant response rating, Corn (corn (Zea mays); [13]): 0 | Plant response rating, Corn (corn (Zea mays); [14]): 0 | Plant response rating, Foxtail, Giant [2, 11]: 30 | Plant response rating, Foxtail, Giant [2, 12]: 80 | Plant response rating, Foxtail, Giant [2, 13]: 0 | Plant response rating, Foxtail, Giant [2, 14]: 20 | Plant response rating, Crabgrass, Large [3, 11]: 70 | Plant response rating, Crabgrass, Large [3, 12]: 90 | Plant response rating, Crabgrass, Large [3, 13]: 30 | Plant response rating, Crabgrass, Large [3, 14]: 80 | Plant response rating, Morningglory [4, 11]: 100 | Plant response rating, Morningglory [4, 12]: 100 | Plant response rating, Morningglory [4, 13]: 0 | Plant response rating, Morningglory [4, 14]: 50 | Plant response rating, Pigweed [5, 11]: 90 | Plant response rating, Pigweed [5, 12]: 100 | Plant response rating, Pigweed [5, 13]: 90 | Plant response rating, Pigweed [5, 14]: 100 | Plant response rating, Velvetleaf [6, 11]: 100 | Plant response rating, Velvetleaf [6, 12]: 100 | Plant response rating, Velvetleaf [6, 13]: 20 | Plant response rating, Velvetleaf [6, 14]: 60 | Plant response rating, Wheat [7, 11]: 0 | Plant response rating, Wheat [7, 12]: 20 | Plant response rating, Wheat [7, 13]: 0 | Plant response rating, Wheat [7, 14]: 0 | Plant response rating, Flood, Barnyardgrass [8]: 10 | Plant response rating, Barnyardgrass [8, 15]: 0 | Plant response rating, Barnyardgrass [8, 16]: 0 | Barnyardgrass plant response rating [8, 17]: 0 | Plant response rating, Flood, Ducksalad [9]: 80 | Plant response rating, Ducksalad [9, 15]: 0 | Plant response rating, Ducksalad [9, 16]: 80 | Ducksalad plant response rating [9, 17]: 0 | Plant response rating, Flood, Rice (rice (Oryza sativa)): 0 | Plant response rating, Rice (rice (Oryza sativa); [15]): 0 | Plant response rating, Rice (rice (Oryza sativa); [16]): 0 | Rice plant response rating (rice (Oryza sativa); [17]): 0 | Plant response rating, Flood, Sedge, Umbrella [10]: 80 | Plant response rating, Sedge, Umbrella [10, 15]: 0 | Plant response rating, Sedge, Umbrella [10, 16]: 65 | Sedge, Umbrella plant response rating [10, 17]: 0
